The record followed here is patent US20240408169A1 (priority 2023, published 2024).

Each structure is given as a SMILES string. *1 amine or outer side, *2 acyl side, *3 side chain or, on linkers, in order; H or OH if unused. Where a SMILES comes first, the peptide text is derived from it. Bridges are numbered along the chain shown (N, C = ends). [ ]: non-standard residue; d: D form. The star is where a group is joined. X42 = CN([C@@H](Cc1cc(Cl)ccc1-c1cnn(S(=O)(=O)C2CC2)c1)C(=O)[*:2])[*:1]; NMehhhLys(Me) = CN([C@@H](CCCCCCCN(C)[*:3])C(=O)[*:2])[*:1]; X118 = Cc1cc(-c2ccc(Cl)cc2C[C@@H](C(=O)[*:2])N(C)[*:1])cnn1; X117 = Cc1cc(-c2ccc(F)cc2C[C@@H](C(=O)[*:2])N(C)[*:1])cnn1; X194 = CN([C@@H](Cc1cc(Cl)ccc1-c1ccnnc1)C(=O)[*:2])[*:1]; NMe(hhhLys) = CN([C@@H](CCCCCCCN[*:3])C(=O)[*:2])[*:1]; cBuCO(3,3-F2-1-CF3) = O=C(C1(C(F)(F)F)CC(F)(F)C1)*; Pro(trans-4-F) = O=C(O)[C@@H]1C[C@@H](F)CN1; Gly(cPr) = N[C@H](C(=O)O)C1CC1

The target of one experiment is T1, CyclinA2/CDK2 (Homo sapiens, UniProt P20248).
T1 construct: purchased CRELUX Protein Services
The experiment in a line: Fluorescence Polarization (FP) competitive binding assay, Cyclin A2/Cdk2.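 Note: plates equilibrated two hours at room temperature before polarization reading, IC50 fitted from eight-concentration compound titration curves.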 To be noted: 8 nM Cyclin A2/Cdk2, 2 nM FAM probe; average of 2-3 independent experiments; read-out: Cyclin A FP IC50. In general terms: Polarisation of emitted light reports the rotation of a fluorescent probe.

A further experiment concerns the target T2, CyclinE1/CDK2 (Homo sapiens, UniProt P24864).
T2 construct: purchased Eurofins, discovery 14-475
As to the kind of experiment: Fluorescence Polarization (FP) competitive binding assay, Cyclin E1/Cdk2.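 Note: readings taken after two-hour equilibration at room temperature in HEPES buffer with NaCl, DTT, NP-40 and BSA, IC50 fitted from eight-concentration serial dilution series.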 As to conditions: 10 nM Cyclin E1/Cdk2, 2 nM FAM probe; average of 2-3 independent experiments; read-out: Cyclin E FP IC50.

Another experiment concerns NCI-H1048 cells. As to the kind of experiment: MTT proliferation assay, NCI-H1048.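 Note: Dose-response in 96-well plates over 8 or 10 concentration points, with exposure spanning 3-4 cell doublings.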 It counts as cell-based. To be noted: 5 days compound exposure, 1:3 serial dilution starting at 10 μM.
The next experiment has as its system OVCAR3 cells. As to the kind of experiment: MTT proliferation assay, OVCAR3.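 Note: compound given as an 8- or 10-point series, one day after plating, with exposure covering roughly 3-4 cell doublings.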 The class given is cell-based. To be noted: 5 days compound exposure, 1:3 serial dilution starting at 10 μM.
Another experiment has as its target T3, CyclinB1/CDK1 (Homo sapiens, UniProt P14635).
T3 construct: purchased Eurofins, discovery 14-450
The experiment in a line: Fluorescence Polarization (FP) competitive binding assay, Cyclin B1/Cdk1.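 Note: fluorescence polarization read after equilibration at room temperature, with IC50 taken from serially diluted dose-response curves.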 As to conditions: 10 nM Cyclin B1/Cdk1, 2 nM FAM probe; average of 2-3 independent experiments; read-out: Cyclin B FP IC50.

By IC50 is commonly meant the concentration needed to halve the response being measured. In general, GI50 refers to the concentration that inhibits growth by half. In the case of `CC(C)C[C@@H]1NC(=O)[C@@H](N(C)C(=O)[C@@H](NC(=O)[C@@H]2C[C@@H](F)CN2C(=O)C2(C(F)(F)F)CC(F)(F)C2)C2CC2)CCCCCCCNC(=O)[C@H](Cc2cc(Cl)ccc2-c2ccnnc2)N(C)C1=O` [Example 291] ({cBuCO(3,3-F2-1-CF3)}-[Pro(trans-4-F)][Gly(cPr)][NMe(hhhLys)]L[X194]; lactam 3-C), the half-inhibitory concentration (IC50) at CyclinA2/CDK2 is 70 nM; at CyclinE1/CDK2, 5160 nM; at CyclinB1/CDK1, 20 nM. Moreover, the results for the GI50 in the experiment on NCI-H1048 cells and with OVCAR3 cells were 120 nM and 150 nM, respectively.
The corresponding values for `CC(C)C[C@@H]1NC(=O)[C@@H](N(C)C(=O)[C@@H](NC(=O)[C@@H]2C[C@@H](F)CN2C(=O)C2(C(F)(F)F)CC(F)(F)C2)C2CC2)CCCCCCCN(C)C(=O)[C@H](Cc2cc(Cl)ccc2-c2ccnnc2)N(C)C1=O` [Example 292] ({cBuCO(3,3-F2-1-CF3)}-[Pro(trans-4-F)][Gly(cPr)][NMehhhLys(Me)]L[X194]; lactam 3-C) are 60 nM, 2880 nM, 20 nM, 70 nM and 110 nM.
Consider `Cc1cc(-c2ccc(F)cc2C[C@H]2C(=O)N(C)CCCCCCC[C@H](N(C)C(=O)[C@@H](NC(=O)[C@@H]3C[C@@H](F)CN3C(=O)C3(C(F)(F)F)CC(F)(F)C3)C3CC3)C(=O)N[C@@H](CC(C)C)C(=O)N2C)cnn1` [Example 293] ({cBuCO(3,3-F2-1-CF3)}-[Pro(trans-4-F)][Gly(cPr)][NMehhhLys(Me)]L[X117]; lactam 3-C), for which the concentration for half-maximal inhibition (IC50) at CyclinA2/CDK2 amounted to 100 nM; at CyclinE1/CDK2, 1990 nM; on CyclinB1/CDK1, 20 nM. The GI50 in the experiment on NCI-H1048 cells was determined as 50 nM; with OVCAR3 cells, 90 nM.
On the same counts, the results for `Cc1cc(-c2ccc(F)cc2C[C@H]2C(=O)NCCCCCCC[C@H](N(C)C(=O)[C@@H](NC(=O)[C@@H]3C[C@@H](F)CN3C(=O)C3(C(F)(F)F)CC(F)(F)C3)C3CC3)C(=O)N[C@@H](CC(C)C)C(=O)N2C)cnn1` [Example 294] ({cBuCO(3,3-F2-1-CF3)}-[Pro(trans-4-F)][Gly(cPr)][NMe(hhhLys)]L[X117]; lactam 3-C) are 80 nM, 1440 nM, 20 nM, 80 nM and 130 nM.
The corresponding values for `Cc1cc(-c2ccc(Cl)cc2C[C@H]2C(=O)NCCCCCCC[C@H](N(C)C(=O)[C@@H](NC(=O)[C@@H]3C[C@@H](F)CN3C(=O)C3(C(F)(F)F)CC(F)(F)C3)C3CC3)C(=O)N[C@@H](CC(C)C)C(=O)N2C)cnn1` [Example 295] ({cBuCO(3,3-F2-1-CF3)}-[Pro(trans-4-F)][Gly(cPr)][NMe(hhhLys)]L[X118]; lactam 3-C) are 70 nM, 3690 nM, 20 nM, 80 nM and 160 nM.
For the compound `Cc1cc(-c2ccc(Cl)cc2C[C@H]2C(=O)N(C)CCCCCCC[C@H](N(C)C(=O)[C@@H](NC(=O)[C@@H]3C[C@@H](F)CN3C(=O)C3(C(F)(F)F)CC(F)(F)C3)C3CC3)C(=O)N[C@@H](CC(C)C)C(=O)N2C)cnn1` [Example 296] ({cBuCO(3,3-F2-1-CF3)}-[Pro(trans-4-F)][Gly(cPr)][NMehhhLys(Me)]L[X118]; lactam 3-C), the IC50 stood at 70 nM on CyclinA2/CDK2, 2810 nM on CyclinE1/CDK2 and 20 nM on CyclinB1/CDK1. Further, the results for the GI50 in the experiment with NCI-H1048 cells and in the experiment with OVCAR3 cells were 70 nM and 100 nM, respectively.
Regarding `CC(C)C[C@@H]1NC(=O)[C@@H](N(C)C(=O)[C@@H](NC(=O)[C@@H]2C[C@@H](F)CN2C(=O)C2(C(F)(F)F)CC(F)(F)C2)C2CC2)C/C=C\CCCCN(C)C(=O)[C@H](Cc2cc(Cl)ccc2-c2cnn(S(C)(=O)=O)c2)N(C)C1=O` [Example 298], the values for the IC50 at CyclinA2/CDK2, on CyclinE1/CDK2 and on CyclinB1/CDK1 were 50 nM, 440 nM and 20 nM, respectively. Moreover, the GI50 with NCI-H1048 cells amounted to 10 nM; with OVCAR3 cells, 20 nM.
As to `CC(C)C[C@@H]1NC(=O)[C@@H](N(C)C(=O)[C@@H](NC(=O)[C@@H]2C[C@@H](F)CN2C(=O)C2(C(F)(F)F)CC(F)(F)C2)C2CC2)CCCCCCCNC(=O)[C@H](Cc2cc(Cl)ccc2-c2cnn(S(=O)(=O)C3CC3)c2)N(C)C1=O` [Example 300] ({cBuCO(3,3-F2-1-CF3)}-[Pro(trans-4-F)][Gly(cPr)][NMe(hhhLys)]L[X42]; lactam 3-C), the 50% inhibitory concentration (IC50) at CyclinA2/CDK2 came to 30 nM; on CyclinE1/CDK2, 680 nM; at CyclinB1/CDK1 it was 20 nM. For the same compound, the results for the concentration for 50% growth inhibition (GI50) in the experiment on NCI-H1048 cells and in the experiment with OVCAR3 cells were 30 nM and 40 nM, respectively.
